Patent US8183292B2, “Chiral cyclic β-amino acids and their derivatives, pharmaceutical compositions containing them and the use of such compounds” (BioBlocks Magyarorszag Gyogyszerkemiai es Fejleszto Kft., priority 2006, dated 2012)

How the values were obtained:
[1] = tested on: MRC-5 human fibroblast cell lines; assay: Cytotoxicity on MRC-5 human fibroblast cell lines (Alamar Blue/resazurine, 24 h); assay type: cell-based; conditions: MRC-5 cells, 24 hours incubation, 1% DMSO
Method: The toxic effect of the compounds was measured on MRC-5 human fibroblast cell lines in accordance with the method that has been described in the article published by Molnár et al. [L. Molnár, G. M. Keserü, Á. Papp, Z. Lörincz, G. Ambrus és F. Darvas.: A neural network based classification scheme for cytotoxicity predictions: Validation on 30,000 compounds, Bioorg. Med. Chem. Lett. 16(4), 1037-9 (2006)]. The cells were incubated for a cell cycle (24 hours) with solutions of various concentrations prepared from the compounds, in the presence of 1% of DMSO. 3 parallel measurements were carried out with 6 different concentrations. The ratio of the viable cells was determined by reducing the Alamaar Blue (resazurine) reagent that was followed fluorimetrically. The measured materials were not toxic on the given cell line in a concentration of 128 μmol after incubation for one day.
In the following Table 1 the cytotoxicity of some compounds according to the invention is given.

[2] = tested on: P-glycoprotein; assay: Reversal of multidrug resistance: rhodamine 123 accumulation in human mdr1 transfected L5178 mouse T-cell lymphoma cells (flow cytometry); assay type: cell-based; conditions: for Multidrug resistance reversing effect (in words): 4 and 40 μg/mL, at higher concentration multiple of fluorescence activity of Verapamil; for Vrel = effect related to Verapamil: Verapamil at 10 μg/ml; for R = ratio of fluorescence and activity / R (activity ratio, fluorescence): rhodamine 123; for Multidrug resistance reversing effect at lower concentrations (in words): lower concentration (4 μg/mL), similar values at higher concentration, indicating saturation; for R: Table 4 concentration series
Method: L5178 mouse T-cell lymphoma cells were transfected with pHa MDR1/A retrovirus, by the method as described by J. L. Weaver [J. L. Weaver, G. Szabó, P. S. Pine, M. M. Gottesmann, S. Goldenberg and A. Aszalos: The effect of ion channel blockers, immunosuppressive agents and other drugs on the activity of the multidrug transporter. Int. […] Mdr-1-expressing cell lines were selected by culturing the transfected cells with 60 ng/mL of colchicine to maintain the expression of the MDR phenotype. L5178 (parent) mouse T-cell lymphoma cells and the human mdr1 transfected subline were cultured in McCoy's 5A medium supplemented with 10% by mass of heath-inactivated horce serum, L-glutamine and antibiotics. Both cell lines were cultured at 37° C. The mouse lymphoma cell line was maintained in a 5% CO2 atmosphere.
The assays were carried out by the method as described by J. Molnár et al. [J. Molnár, I. Mucsi, J. Nacsa, A. Hevér, N. Gyémánt, K. Ugocsai, P. Hegyes, S. Kiessig, D. Gaal, H. Lage and A. Varga: New silicon compounds as resistance modifiers against multidrug-resistant cells. […] The cell density was set to a value of 2×10^6/mL, then the cells were resuspended in a serum-free McCoy's 5A medium and divided in aliquots of 0.5 mL in Eppendorf centrifuge tubes. The tested compounds were added in different concentrations to different volumes (2.0-20.0 μL) of 1.0-10.0 mg/mL stock solutions and the samples were incubated for 10 minutes at room temperature. […] The fluorescence of the cell population was measured with a Beckton Dickinson FACScan flow cytometer. […] The percentage value of the mean fluorescence intensity was calculated for the treated MDR and for the parental cell lines as compared with the values obtained with the untreated cells. The activity ratio (R) was calculated on the basis of the measured fluorescence values by the following equation: […]

| melting point [°C] | SMILES | Survival (%) [c = 128 μM] [1] [%] | Multidrug resistance reversing effect (in words) [2] | Vrel = effect related to Verapamil ([2]; Table 3, 4 μg/ml) | R = ratio of fluorescence and activity ([2]; Table 3, 4 μg/ml) | Vrel = effect related to Verapamil ([2]; Table 3, 40 μg/ml) | R = ratio of fluorescence and activity ([2]; Table 3, 40 μg/ml) | Vrel = effect related to Verapamil ([2]; Table 2, 4 μg/ml) | R (activity ratio, fluorescence) ([2]; Table 2, 4 μg/ml) | Vrel = effect related to Verapamil ([2]; Table 2, 40 μg/ml) | R (activity ratio, fluorescence) ([2]; Table 2, 40 μg/ml) | Multidrug resistance reversing effect at lower concentrations (in words) [2] | Effect in concentration series (in words) ([2]; 0.04, 0.08, 0.4, 0.8 and 4 μg/mL) | R ([2]; 0.04 μg/ml) | R ([2]; 0.08 μg/ml) | R ([2]; 0.4 μg/ml) | R ([2]; 0.8 μg/ml) | R ([2]; 4 μg/ml) | Concentration sufficient for a significant P-glycoprotein-inhibiting effect ([2]; concentration series 0.04-4 μg/mL) [µg/mL] |
| --- | --- | --- | --- | --- | --- | --- | --- | --- | --- | --- | --- | --- | --- | --- | --- | --- | --- | --- | --- |
| 170 to 171 | CCOC(=O)[C@H]1C[C@H]2C[C@@H]([C@H]1NC(=O)Nc1ccc(Cl)cc1)C2(C)C [Compound 45, (1R,2R,3S,5R)-1-(3-Ethoxycarbonyl-6,6-Dimethylbicyclo[3.1.1]Heptan-2-yl) -3-(4-Chlorophenyl)-Urea] | 176.7 | – | – | – | – | – | 1.52 | 7.46 | 2.21 | 10.89 | – | – | – | – | – | – | – | – |
| 118 to 120 | CCOC(=O)[C@@H]1C[C@H]2C[C@@H]([C@H]1NC(=S)Nc1cccc(OC)c1)C2(C)C [Compound 49, (1R,2R,3R,5R)-1-(3-Ethoxycarbonyl-6,6-Dimethylbicyclo[3.1.1]Heptan-2-yl)-3-(3-Methoxyphenyl)-Thiourea] | 250.9 | significant dose-dependent effect | – | – | – | – | 0.56 | 2.77 | 5.71 | 28.07 | – | – | – | – | – | – | – | – |
| 132 to 135 | CCOC(=O)[C@H]1C[C@H]2C[C@@H]([C@H]1NC(=S)Nc1cccc(OC)c1)C2(C)C [Compound 44, (1R,2R,3S,5R)-1-(3-Ethoxycarbonyl-6,6-Dimethylbicyclo[3.1.1]Heptan-2-yl)-3-(3-Methoxyphenyl)-Thiourea] | 128.1 | significant dose-dependent effect | – | – | – | – | 0.41 | 2.02 | 4.47 | 22 | – | – | – | – | – | – | – | – |
| 125 to 126 | CCOC(=O)[C@H]1C[C@H]2C[C@@H]([C@H]1NC(=S)NCCc1ccc(OC)c(OC)c1)C2(C)C [Compound 46, (1R,2R,3S,5R)-1-(3-Ethoxycarbonyl-6,6-Dimethylbicyclo[3.1.1]Heptan-2-yl) -3-(3,4-Dimethoxyphenylethyl)-Thiourea] | 182.2 | significant dose-dependent effect | – | – | – | – | 0.82 | 4.02 | 4.46 | 21.92 | – | – | – | – | – | – | – | – |

Further lines, the molecule ahead of its results:

| SMILES | melting point [°C] | Survival (%) [c = 128 μM] [1] [%] | Multidrug resistance reversing effect (in words) [2] | Vrel = effect related to Verapamil ([2]; Table 3, 4 μg/ml) | R = ratio of fluorescence and activity ([2]; Table 3, 4 μg/ml) | Vrel = effect related to Verapamil ([2]; Table 3, 40 μg/ml) | R = ratio of fluorescence and activity ([2]; Table 3, 40 μg/ml) | Vrel = effect related to Verapamil ([2]; Table 2, 4 μg/ml) | R (activity ratio, fluorescence) ([2]; Table 2, 4 μg/ml) | Vrel = effect related to Verapamil ([2]; Table 2, 40 μg/ml) | R (activity ratio, fluorescence) ([2]; Table 2, 40 μg/ml) | Multidrug resistance reversing effect at lower concentrations (in words) [2] | Effect in concentration series (in words) ([2]; 0.04, 0.08, 0.4, 0.8 and 4 μg/mL) | R ([2]; 0.04 μg/ml) | R ([2]; 0.08 μg/ml) | R ([2]; 0.4 μg/ml) | R ([2]; 0.8 μg/ml) | R ([2]; 4 μg/ml) | Concentration sufficient for a significant P-glycoprotein-inhibiting effect ([2]; concentration series 0.04-4 μg/mL) [µg/mL] |
| --- | --- | --- | --- | --- | --- | --- | --- | --- | --- | --- | --- | --- | --- | --- | --- | --- | --- | --- | --- |
| CCOC(=O)[C@@H]1C[C@H]2C[C@@H]([C@H]1NC(=O)Nc1ccc(Cl)cc1)C2(C)C [Compound 50, (1R,2R,3R,5R)-1-(3-Ethoxycarbonyl-6,6-Dimethylbicyclo[3.1.1]Heptan-2-yl)-3-(4-Chlorophenyl)-Urea] | 167 to 169 | 167.6 | significant dose-dependent effect | 0.16 | 1.87 | 3.70 | 42.58 | – | – | – | – | – | – | – | – | – | – | – | – |
| CCOC(=O)[C@H]1C[C@@H]2C[C@H]([C@@H]1NC(=O)Nc1ccc(Cl)cc1)C2(C)C [Compound 56, (1S,2S,3S,5S)-1-(3-Ethoxycarbonyl-6,6-Dimethylbicyclo[3.1.1]Heptan-2-yl)-3-(4-Chlorophenyl)-Urea] | – | 116.8 | significant dose-dependent effect | 0.14 | 1.57 | 3.43 | 39.39 | – | – | – | – | – | – | – | – | – | – | – | – |
| CCOC(=O)[C@H]1C[C@@H]2C[C@H]([C@@H]1NC(=S)Nc1cccc(OC)c1)C2(C)C [Compound 55, (1S,2S,3S,5S)-1-(3-Ethoxycarbonyl-6,6-Dimethylbicyclo[3.1.1]Heptan-2-yl)-3-(3-Methoxyphenyl)-Thiourea] | – | 214.1 | – | – | – | – | – | 0.62 | 3.07 | 2.44 | 11.99 | – | – | – | – | – | – | – | – |
| CCOC(=O)[C@H](Cc1ccccc1)NC(=O)[C@@H]1C[C@@H]2C[C@H]([C@@H]1NC(=O)OC(C)(C)C)C2(C)C [Compound 38] | – | 125.3 | – | – | – | – | – | 0.79 | 2.33 | 6.73 | 19.92 | – | – | – | – | – | – | – | – |
| CCOC(=O)[C@@H]1C[C@H]2C[C@@H]([C@H]1N(Cc1ccccc1)C(=S)Nc1cccc(OC)c1)C2(C)C [Compound 52, (1R,2R,3R,5R)-1-Benzyl-1-(3-Ethoxycarbonyl-6,6-Dimethylbicyclo[3.1.1]-Heptan-2-yl)-3-(3-Methoxyphenyl)-Thiourea] | 110 to 111 | 113.0 | – | 1.90 | 21.87 | 2.13 | 24.44 | – | – | – | – | considerable multidrug resistance reversing effect | – | – | – | – | – | – | – |
| CCOC(=O)[C@H]1C[C@H]2C[C@@H]([C@H]1N(Cc1ccccc1)C(=S)Nc1cccc(OC)c1)C2(C)C [Compound 47, (1R,2R,3S,5R)-1-Benzyl-1-(3-Ethoxycarbonyl-6,6-Dimethylbicyclo[3.1.1]Heptan-2-yl)-3-(3-Methoxyphenyl)-Thiourea] | 109 to 112 | 97.7 | significant dose-dependent effect | 3.02 | 34.76 | 3.07 | 35.35 | – | – | – | – | considerable multidrug resistance reversing effect | Dose-dependence was observed | 1.44 | 1.60 | 6.03 | 7.16 | 35.20 | 0.4 |
